{"source": "patent US20220259202A1", "about": "“1-(4-(AMINOMETHYL)BENZYL)-2-BUTYL-2H-PYRAZOLO[3,4-C]QUINOLIN-4-AMINE DERIVATIVES AND RELATED COMPOUNDS AS TOLL-LIKE RECEPTOR (TLR) 7/8 AGONISTS, AS WELL AS ANTIBODY DRUG CONJUGATES THEREOF FOR USE IN CANCER THERAPY AND DIAGNOSIS” (SUTRO BIOPHARMA, INC., priority 2019, published 2022)", "key": {"[1]": {"biological_target": "T1, human TLR3 (Homo sapiens, UniProt O15455)", "T1 construct": "host or cells: HEK293", "T1 sequence (O15455 24-904)": "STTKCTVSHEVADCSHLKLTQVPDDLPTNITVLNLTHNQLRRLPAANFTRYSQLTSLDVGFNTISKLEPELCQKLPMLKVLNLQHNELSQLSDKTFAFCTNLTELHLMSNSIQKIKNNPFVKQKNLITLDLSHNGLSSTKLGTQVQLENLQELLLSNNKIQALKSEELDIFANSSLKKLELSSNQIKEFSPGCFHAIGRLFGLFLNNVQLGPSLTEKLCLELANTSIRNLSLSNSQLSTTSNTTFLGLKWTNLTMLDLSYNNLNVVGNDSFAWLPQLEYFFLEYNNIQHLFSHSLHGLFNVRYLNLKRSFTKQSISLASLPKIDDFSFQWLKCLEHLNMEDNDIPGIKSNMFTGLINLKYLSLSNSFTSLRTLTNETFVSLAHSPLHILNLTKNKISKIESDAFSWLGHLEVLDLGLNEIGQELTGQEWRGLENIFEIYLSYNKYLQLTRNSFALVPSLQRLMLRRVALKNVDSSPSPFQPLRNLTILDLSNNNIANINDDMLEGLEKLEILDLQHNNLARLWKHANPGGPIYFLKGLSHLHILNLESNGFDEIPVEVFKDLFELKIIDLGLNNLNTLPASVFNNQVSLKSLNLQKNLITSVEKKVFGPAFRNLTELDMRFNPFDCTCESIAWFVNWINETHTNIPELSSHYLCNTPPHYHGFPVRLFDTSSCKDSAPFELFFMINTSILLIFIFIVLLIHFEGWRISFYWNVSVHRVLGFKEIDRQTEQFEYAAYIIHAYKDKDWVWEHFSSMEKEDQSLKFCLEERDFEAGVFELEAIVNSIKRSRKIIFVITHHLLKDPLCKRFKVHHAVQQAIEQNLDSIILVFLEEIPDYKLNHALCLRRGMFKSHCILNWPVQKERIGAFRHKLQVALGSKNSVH", "test": "HEK293 SEAP reporter assay, other TLRs (Biological Example 3)", "type": "cell-based", "conditions": "16 hrs, up to 1 μM", "from_the_text": "(§1) In this example, the activity of the Compound 1 to stimulate different human and mouse TLR pathways was investigated on HEK293 cells transfected with inducible SEAP (secreted embryonic alkaline phosphatase) reporter genes and also expressing different human TLRs (TLR2, TLR3, TLR4, TLR5, TLR7, TLR8, TLRS) or mouse TLRs (TLR2, TLR3, TLR4, TLR5, TLR7, TLR8, TLR13). Compound A\n(§2) HEK293 reporter cell lines were purchased from Invivogen and cell lines were maintained in manufacture recommended culture medium with required supplemental antibiotics. On the day of assay, the cells were harvested with Accutase and counted by the Vi-CELL Cell Viability Analyzers. Cells were re-suspended in HEK blue detection medium and a total of 10000 cells were seeded in each well of a 384-well flat bottom plate. […] Assay plates were cultured at 37° C. in a CO2 incubator for 16 hrs. HEK-Blue™ Detection medium changes to a purple/blue color in the presence of secreted SEAP, which can be detected by spectrophotometry at 620-655 nm. Data was fitted with non-linear regression analysis, using a log(inhibitor) vs. response-variable slope, 3-parameter fit with GraphPad Prism."}, "[2]": {"biological_target": "T2, human TLR9 (Homo sapiens, UniProt Q9NR96)", "T2 construct": "host or cells: HEK293", "T2 sequence (Q9NR96 26-1032)": "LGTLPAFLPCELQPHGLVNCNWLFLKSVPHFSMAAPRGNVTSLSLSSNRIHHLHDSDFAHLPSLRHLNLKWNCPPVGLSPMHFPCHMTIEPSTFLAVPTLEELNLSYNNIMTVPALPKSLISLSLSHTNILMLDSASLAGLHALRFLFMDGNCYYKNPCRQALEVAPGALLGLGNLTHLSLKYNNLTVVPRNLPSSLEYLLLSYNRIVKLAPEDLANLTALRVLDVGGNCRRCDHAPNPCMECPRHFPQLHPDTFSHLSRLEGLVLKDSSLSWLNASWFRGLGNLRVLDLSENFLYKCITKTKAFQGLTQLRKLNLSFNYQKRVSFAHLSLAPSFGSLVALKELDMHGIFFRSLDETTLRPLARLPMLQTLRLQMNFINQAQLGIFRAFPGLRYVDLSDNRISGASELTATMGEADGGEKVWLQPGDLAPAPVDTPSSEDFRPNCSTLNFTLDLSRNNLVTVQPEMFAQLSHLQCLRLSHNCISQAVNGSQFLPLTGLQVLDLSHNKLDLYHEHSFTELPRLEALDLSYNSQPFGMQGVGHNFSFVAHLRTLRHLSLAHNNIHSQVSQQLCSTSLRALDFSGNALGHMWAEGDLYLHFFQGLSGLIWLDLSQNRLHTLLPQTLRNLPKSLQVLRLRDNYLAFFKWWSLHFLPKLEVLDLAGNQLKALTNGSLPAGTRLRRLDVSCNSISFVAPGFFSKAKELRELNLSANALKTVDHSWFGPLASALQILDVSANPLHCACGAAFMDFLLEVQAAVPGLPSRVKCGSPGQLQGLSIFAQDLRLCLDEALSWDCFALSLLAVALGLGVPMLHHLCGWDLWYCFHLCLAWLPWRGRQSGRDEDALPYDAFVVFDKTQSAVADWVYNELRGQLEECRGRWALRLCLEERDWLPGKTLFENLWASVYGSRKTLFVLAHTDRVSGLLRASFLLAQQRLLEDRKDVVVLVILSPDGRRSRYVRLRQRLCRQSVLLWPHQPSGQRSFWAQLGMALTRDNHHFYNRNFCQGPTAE", "test": "HEK293 SEAP reporter assay, other TLRs (Biological Example 3)", "type": "cell-based", "conditions": "16 hrs, up to 1 μM", "from_the_text": "as §1, §2"}}, "data": [{"smiles": "CCCCn1nc2c(N)nc3ccccc3c2c1Cc1ccc(CN)cc1", "note": "[Compound 1, 1-(4-(aminomethyl)benzyl)-2-butyl-2H-pyrazolo[3,4-c]quinolin-4-amine]", "values": [{"measurement": "EC50", "setting": "[1]", "result": "> 1000", "unit": "nM"}, {"measurement": "EC50", "setting": "[2]", "result": "> 1000", "unit": "nM"}]}, {"smiles": "CCCCc1nc2c(N)nc3ccccc3c2n1Cc1ccc(CN)cc1", "note": "[Compound A, reference compound]", "values": [{"measurement": "EC50", "setting": "[1]", "result": "> 1000", "unit": "nM"}, {"measurement": "EC50", "setting": "[2]", "result": "> 1000", "unit": "nM"}]}]}
